The text below walks through data of the NIST ThermoML archive (doi:10.1021/je900909s).

“And” between values parts separate entries of the source, which are not always exact repeats. Equal values may be shown once. ± gives the expanded uncertainty stated by the source.

This series is described as follows: cn = amount concentration of the nth substance listed, in mol/dm3. The following applies: 101 kPa, Liquid, c1 = 2; for speed of sound: Frequency=4 MHz, Linear variable-path acoustic interferometer.

What is called speed of sound is how fast a sound wave travels through the sample. A word on the mass density: it is the mass of a sample divided by its volume. On to `[Cl-].[Na+]` [sodium chloride] + O, for which the speed of sound runs as follows: (298.15 K) 1614.3 ± 2.1 m/s; (303.15 K) 1620.9 ± 2.1 m/s; (308.15 K) 1627.6 ± 2.1 m/s; (313.15 K) 1633.7 ± 2.1 m/s; (318.15 K) 1637.3 ± 2.1 m/s; (323.15 K) 1640.5 ± 2.2 m/s. Besides, under “328.15 K”, the speed of sound is 1643.7 ± 2.2 m/s and 1642.7 ± 2.2 m/s. For the same compound, the mass density by setting is: (298.15 K) 1075 ± 1.4 kg/m3; (303.15 K) 1073 ± 1.5 kg/m3; (308.15 K) 1070.7 ± 1.5 kg/m3; (313.15 K) 1068.3 ± 1.6 kg/m3; (318.15 K) 1065.7 ± 1.7 kg/m3; (323.15 K) 1063.1 ± 1.7 kg/m3. Besides, the mass density (328.15 K) turned out to be 1060.2 ± 1.8 kg/m3.

As for `O=[N+]([O-])[O-].[Na+]` [sodium nitrate] + O, the speed of sound reads like this: (298.15 K) 1581.4 ± 2.1 m/s; (303.15 K) 1588.6 ± 2.1 m/s; (308.15 K) 1593.2 ± 2.1 m/s; (313.15 K) 1596.3 ± 2.1 m/s; (318.15 K) 1600.1 ± 2.1 m/s; (323.15 K) 1604.3 ± 2.1 m/s. Under “328.15 K”, the speed of sound is 1607.1 ± 2.1 m/s. Moreover, the mass density by setting is: (298.15 K) 1104.2 ± 1.5 kg/m3; (303.15 K) 1101.7 ± 1.5 kg/m3; (308.15 K) 1099 ± 1.6 kg/m3; (313.15 K) 1096.3 ± 1.7 kg/m3; (318.15 K) 1093.4 ± 1.7 kg/m3; (323.15 K) 1090.4 ± 1.8 kg/m3. Further, the mass density (328.15 K) is recorded as 1087.2 ± 1.8 kg/m3.
